2 compounds from ChEMBL document CHEMBL1153635, “Identification of [4-[4-(methylsulfonyl)phenyl]-6-(trifluoromethyl)-2-pyrimidinyl] amines and ethers as potent and selective cyclooxygenase-2 inhibitors” (Bioorg Med Chem Lett, 2009) can be followed below.

The target in data set [1] is T1, Prostaglandin G/H synthase 1 (Homo sapiens, UniProt P23219). Briefly: biochemical. In kind it is cell-based, COS.
Data set [2] is described as follows: Terminal half life in rat at 1 mg/kg/hr, iv. In kind it is ADME, organism-based. More on the design: route intravenous. The note with it: in vivo, read-out: beta t1/2 (converted).
The target of data set [3] is T2, Prostaglandin G/H synthase 2 (Homo sapiens, UniProt P35354).
T2 sequence (P35354 whole entry): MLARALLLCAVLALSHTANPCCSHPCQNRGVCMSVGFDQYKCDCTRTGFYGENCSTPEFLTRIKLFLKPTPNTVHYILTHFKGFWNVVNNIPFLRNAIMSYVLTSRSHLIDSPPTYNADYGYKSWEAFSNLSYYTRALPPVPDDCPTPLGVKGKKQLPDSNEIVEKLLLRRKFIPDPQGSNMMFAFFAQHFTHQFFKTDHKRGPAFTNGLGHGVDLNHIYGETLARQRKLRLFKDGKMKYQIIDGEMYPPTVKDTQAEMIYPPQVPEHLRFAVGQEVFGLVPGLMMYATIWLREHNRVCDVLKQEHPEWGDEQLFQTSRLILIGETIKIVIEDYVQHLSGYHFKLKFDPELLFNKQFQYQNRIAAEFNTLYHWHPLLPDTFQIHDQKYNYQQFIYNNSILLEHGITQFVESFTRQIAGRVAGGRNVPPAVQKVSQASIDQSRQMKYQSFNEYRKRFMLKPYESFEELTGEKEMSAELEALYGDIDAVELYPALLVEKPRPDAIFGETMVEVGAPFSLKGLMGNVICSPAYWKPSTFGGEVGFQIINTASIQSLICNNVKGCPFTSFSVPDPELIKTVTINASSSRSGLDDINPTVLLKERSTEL
Nature of the data set: biochemical. The data set is classed as cell-based, Sf9.

Data set [4] deals with T2, Prostaglandin G/H synthase 2. In kind it is cell-based, COS.
The species named for data set [5] is Rattus norvegicus. Briefly: Analgesic activity against Freund's adjuvant-induced pain in rat model of acute inflammatory pain assessed as reversal of adjuvant hypersensitivity. The data set is classed as functional.
In data set [6] the test system is COS. Nature of the data set: Selectivity ratio of IC50 for human COX1 to IC50 for human COX2 expressed in african green monkey COS cells. The data set is classed as cell-based.
Data set [7] can be described thus: Volume of distribution at steady state in rat at 1 mg/kg/hr, iv. The data set is classed as ADME, organism-based. More on the design: route intravenous. The conditions noted are these: in vivo, read-out: Vdss.
A short description of data set [8]: Selectivity ratio of IC50 for human COX1 to IC50 for human COX2 expressed in baculovirus-infected SF9 cells.
In data set [9] the target is T1, Prostaglandin G/H synthase 1. In kind it is tissue-based, Blood.
Data set [10] in a line: Oral bioavailability in rat at 5 mg/kg. In kind it is ADME, organism-based. The note with it: in vivo.
Data set [11] deals with T1, Prostaglandin G/H synthase 1. Nature of the data set: biochemical. In kind it is cell-based, Sf9.
The species named for data set [12] is Homo sapiens. Briefly: Selectivity ratio of IC50 for COX1 to IC50 for COX2 in human whole blood. In kind it is tissue-based.
The nature of data set [13]: Blood clearance in rat at 1 mg/kg/hr, iv. The data set is classed as ADME, organism-based. More on the design: route intravenous. The conditions noted are these: whole blood.
In data set [14] the target is T2, Prostaglandin G/H synthase 2. In kind it is tissue-based, Blood.
Description: Inhibition of COX2 in human whole blood assessed as inhibition of lipopolysaccharide-stimulated PGE2 production after 24 hrs by enzyme immunoassay
A short description of data set [15]: in vivo. The note with it: rat, brain / blood.
Description: Ratio of drug level in brain to blood in rat
Data set [16] concerns Rattus norvegicus. Briefly: Antihyperalgesic activity against chronic constriction nerve injury-induced hyperalgesia in rat assessed as reversal of decrease in the paw withdrawal threshold at 5 mg/kg, po bid for 10 days measured on day 7 postdose. In kind it is functional, organism-based. More on the design: dose 5 mg/kg.
Data set [17] concerns Rattus norvegicus. Nature of the data set: Antihyperalgesic activity against chronic constriction nerve injury-induced hyperalgesia in rat assessed as reversal of decrease in the paw withdrawal threshold at 5 mg/kg, po bid for 10 days measured on day 10 postdose. In kind it is functional, organism-based. More on the design: dose 5 mg/kg.
Data set [18] relates to Rattus norvegicus. Nature of the data set: Antihyperalgesic activity against chronic constriction nerve injury-induced hyperalgesia in rat assessed as reversal of decrease in the paw withdrawal threshold at 5 mg/kg, po bid for 10 days measured on day 3 postdose. The data set is classed as functional, organism-based. More on the design: dose 5 mg/kg.
The nature of data set [19]: Oral bioavailability in rat at 1 mg/kg. The data set is classed as ADME, organism-based. The note with it: in vivo.

Molecules are shown by their SMILES. Active and inactive are the calls of the source.

T1 sequence (P23219 whole entry): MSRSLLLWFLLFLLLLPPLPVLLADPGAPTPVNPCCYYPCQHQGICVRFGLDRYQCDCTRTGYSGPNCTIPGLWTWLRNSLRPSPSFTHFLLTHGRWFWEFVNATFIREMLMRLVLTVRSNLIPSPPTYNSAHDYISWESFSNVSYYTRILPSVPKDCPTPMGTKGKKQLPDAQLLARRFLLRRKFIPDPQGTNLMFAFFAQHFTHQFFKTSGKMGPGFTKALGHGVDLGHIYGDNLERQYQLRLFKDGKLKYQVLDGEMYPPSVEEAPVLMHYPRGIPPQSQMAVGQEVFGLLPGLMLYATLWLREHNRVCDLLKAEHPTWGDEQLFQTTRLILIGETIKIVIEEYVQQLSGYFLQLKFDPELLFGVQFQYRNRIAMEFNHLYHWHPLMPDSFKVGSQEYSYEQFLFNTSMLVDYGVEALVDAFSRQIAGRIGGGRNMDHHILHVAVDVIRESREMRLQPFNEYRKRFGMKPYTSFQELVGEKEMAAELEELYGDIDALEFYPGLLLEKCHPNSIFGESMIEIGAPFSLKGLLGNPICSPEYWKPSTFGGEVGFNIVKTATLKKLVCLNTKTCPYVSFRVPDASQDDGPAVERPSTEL

In general, IC50 refers to the concentration that gives 50% inhibition. In general, ED50 refers to the midpoint of the dose-response relation. Broadly, the clearance is a measure of how efficiently the substance is removed, as volume per time. In the case of `CC(C)CNc1nc(-c2ccc(S(C)(=O)=O)cc2)cc(C(F)(F)F)n1`, the concentration for half-maximal inhibition (IC50) was greater than 66200 nM in data set [1]; 12 nM in [3]; 2 nM in data set [4]; 62000 nM in data set [9]; greater than 100000 nM in [11]; 206 nM in data set [14]. In addition, the half-life in data set [2] was 9 h. For the same compound, the 50% effective dose (ED50) in [5] stood at 0.5 mg/kg. Also, the Ratio IC50 in data set [6] is greater than 33100; in data set [8] it was greater than 8330; in data set [12], 301. The Vd in data set [7] came to 6 L/kg. For the same compound, in [10], the bioavailability worked out at 107%. The clearance in [13] worked out at 10 mL/min/kg.

For orientation: Kp means tissue or fluid exposure divided by exposure in the circulation. With `CCCCOc1nc(-c2ccc(S(C)(=O)=O)cc2)cc(C(F)(F)F)n1`, in [2], the half-life is 4.2 h. Also, the IC50 came out at 21.5 nM in [3] and 158 nM in data set [14]. The ED50 in [5] came out at 2.1 mg/kg. Moreover, the Vd in [7] was found to be 5.7 L/kg. In data set [15], this compound displayed a concentration ratio (Kp) of 3.2. Moreover, the outcome in data set [16], in data set [17] and in [18] was Active. In addition, in data set [13], the clearance stood at 24 mL/min/kg. Also, in data set [19], the bioavailability turned out to be 84%.
